Data on 1 compound can be found in PMC4349624, “In vitro synergistic effect of fluoroquinolone analogues in combination with artemisinin against Plasmodium falciparum; their antiplasmodial action in rodent malaria model” (Malaria Journal, 2015).

Series [1] relates to Plasmodium falciparum 3D7 strain. Description: antiplasmodial interaction assay, fixed-ratio combination isobologram method with artemisinin. It counts as cell-based. Particulars: n = 3. The method, then: Stock culture of malaria parasite P. falciparum 3D7 strain (chloroquine sensitive) was continuously maintained in vitro using a CO2 incubator under low-oxygen concentration (3%) and high carbon dioxide atmosphere (4%) along with nitrogen (93%), incubated at a temperature of 37°C. The parasites were maintained on O^+ human red blood cells suspended in a complete culture medium. Each litre of RPMI-1640 aqueous culture medium was prepared with 10.4 g of powdered RPMI-1640 (with glutamine but without sodium bicarbonate), 5.94 g of HEPES buffer, 1 g of dextrose and 40 mg of gentamicin. Complete medium was constituted just before use by adding sterile 5% sodium bicarbonate at the rate of 4 ml per 96 ml, and supplemented with 10% (v/v) pooled O^+ human serum. Infected erythrocytes were suspended in this culture media initiated at a haematocrit value of 5% and parasitemia was kept between 2 and 4% with sub-culturing done beyond 5%. Medium was changed once a day and percentage parasitemia was monitored using Giemsa stained slides.
Artemisinin (Sigma Aldrich, USA) was prepared in DMSO to get the stock solution of 1 mg/ml strength. Compounds 10, 12 and 18 were synthesized according to the procedure described by Dixit et al. and each compound was made to strength of 1 mg/ml stock solution in DMSO. The stock solutions were diluted on the day of experiment to get the desired concentrations for each compound. The highest amount of DMSO in diluted concentrations was 0.125%, and had no effect on parasite growth.
In each combination assay, two compounds (Compound A, artemisinin and Compound B, a fluoroquinolone derivative or norfloxacin) were combined in four fixed ratios (4:1, 3:2, 2:3, and 1:4).
Compound dilutions of each combination solution were made in sterile, flat-bottomed, 96-well tissue culture plates as described by Fivelman et al.. Six times two-fold serial dilution was done for each combination in triplicate. Each well contained a total volume of 200 μl of complete culture medium with or without compound and pre-synchronized infected red blood cells (1% parasitemia at 2.5% haematocrit). Control cultures (without compound) were maintained on the same plate in triplicate. Two 96-well plates (for six combinations) were used for each combination experiment. The plates were stacked in a CO2 incubator and incubated at 37°C for 48 hours.
After 48-hour incubation, thin blood smear slides were prepared, air dried, methanol fixed, and stained in Giemsa solution for 40 min. After staining, slides were removed from coupling jar, washed in running tap water and air dried. The Giemsa-stained slides were examined for counting the number of parasites in random adjacent microscopic fields, equivalent to about 4,000 erythrocytes at 1,000 × magnification. Per cent parasitemia was calculated. Reproducibility of counts was checked by two other readers to maintain the quality control.
For each combination assay, IC50 was calculated from two sets of concentration response graphs, each containing compound alone curve and four combination curves.
ƩFIC <1 represents synergism, ƩFIC > = 1 and <2 represents additive interaction, ƩFIC > = 2 and <4 represents slight antagonism while ƩFIC > = 4 represents marked antagonism.

For series [2] the following is noted: cited from earlier work.
A further series relates to Plasmodium berghei ANKA. Description: Peters' four-day suppressive test in BALB/c mice. The conditions noted are these: ip; for Mean ED50 ± SE: once daily days 0 to 3, BALB/c mice, n = 5. It counts as in vivo. An excerpt: Evaluation of the curative potential of the fluoroquinolone derivatives was done using the method described by Ryley and Peters, 1970 (rodent malaria four-day suppressive test; Peters’ four-day suppressive test). Rodent malaria parasite Plasmodium berghei ANKA was used.
[…] BALB/c inbred albino mice (25–30 g) of the male sex were obtained from the Animal Facility Centre of the Department of Zoology, University of Delhi. The animals were fed ad libitum with standard feed and had free access to water. They were maintained under standard conditions of humidity, temperature (25°C) and 12 hours light/darkness cycles. The animals were acclimatized for two weeks before the commencement of the study and were ensured to exclude all zoonotic agents.
Day 0: Heparinized blood was withdrawn from an infected donor mouse with approximately 25-30% parasitemia, and diluted in 1x PBS to 10^8 parasitized erythrocytes per mL. An aliquot of 0.2 mL (=2 × 10^7 parasitized erythrocytes) of this suspension was injected intraperitoneally (ip) into experimental groups of five mice each. One to three hours post-infection, the experimental groups were treated with varying doses of each of the test compounds (0.5, 1, 10, 25 mg/kg BW) by the ip route. Each compound was made to strength of 5 mg/ml stock solution in 10% DMSO and administered according to desired concentration and individual body weight. Artemisinin was given to the standard drug group and 0.2 mL of normal saline to the negative control group.
Day 1, 2 and 3: 24 hours, 48 hours and 72 hours post-infection, the experimental groups of mice were treated again with the same dose and by the same route as on day 0.
Day 4: 24 hours after the last treatment (i.e., 96 hours post-infection), blood was drawn from the tail region of mice and smears were prepared. […] Differences in parasitemia percentage between treated groups and untreated animals were analysed by a one-way ANOVA test using IBM SPSS Statistics 16.0 and differences considered significant if P < 0.05. […] Percentinhibitionactivity=100–Meanparasitemia/control×100
Untreated control mice typically died approximately one week after infection. […] The mean survival time was calculated in comparison to untreated (Normal saline) and standard drug (artemisinin) treated groups. Differences in survival time between treated groups and untreated animals were analysed by Log-rank (Mantel-Cox) test using GraphPad Prism 5 and differences considered significant if P <0.005. Observations concerning adverse effects due to the compounds were recorded.

On to `C[C@@H]1CC[C@H]2[C@@H](C)C(=O)O[C@@H]3O[C@@]4(C)CC[C@@H]1[C@]32OO4` [Artemisinin], for which the “Drug A (Artemisinin) Mean FIC50 ± SE” value turned out to be 0.17 ± 0.03 in series [1] (ratio A:B 1:4, combined with compound 10); 0.25 ± 0.004 in series [1] (ratio A:B 1:4, combined with compound 12); 0.22 ± 0.01 in series [1] (ratio A:B 1:4, combined with compound 18); 0.14 ± 0.01 in series [1] (ratio A:B 1:4, combined with norfloxacin); 0.48 ± 0.02 in series [1] (ratio A:B 2:3, combined with compound 10); 0.50 ± 0.02 in series [1] (ratio A:B 2:3, combined with compound 12). The “Drug A (Artemisinin) Mean FIC50 ± SE” value in series [1] (ratio A:B 2:3, combined with compound 18) is 0.49 ± 0.04; in series [1] (ratio A:B 2:3, combined with norfloxacin), 0.66 ± 0.02; in series [1] (ratio A:B 3:2, combined with compound 10) it was 0.58 ± 0.03; in series [1] (ratio A:B 3:2, combined with compound 12), 0.60 ± 0.03; in series [1] (ratio A:B 3:2, combined with compound 18), 0.55 ± 0.03; in series [1] (ratio A:B 3:2, combined with norfloxacin), 0.29 ± 0.02. For the same compound, the “Drug A (Artemisinin) Mean FIC50 ± SE” value is given as 0.61 ± 0.01 in series [1] (ratio A:B 4:1, combined with compound 10); 0.63 ± 0.03 in series [1] (ratio A:B 4:1, combined with compound 12); 0.58 ± 0.02 in series [1] (ratio A:B 4:1, combined with compound 18); 0.91 ± 0.03 in series [1] (ratio A:B 4:1, combined with norfloxacin); 1.02 ± 0.04 in series [1] (ratio A:B 5:0, assay with compound 10); 1.0 ± 0.02 in series [1] (ratio A:B 5:0, assay with compound 12). Further, the “Drug A (Artemisinin) Mean FIC50 ± SE” value in series [1] (ratio A:B 5:0, assay with compound 18) came to 0.97 ± 0.07; in series [1] (ratio A:B 5:0, assay with norfloxacin), 1.13 ± 0.06. Also, in series [2], the half life entry is “< one”. The “Mean ED50 ± SE” value turned out to be 1.72 ± 0.15 mg/kg BW in the series with Plasmodium berghei ANKA and 1.72 mg/kg BW in the series with Plasmodium berghei ANKA (listed as artemisinin). Moreover, the “survival of treated mice” value in the series on Plasmodium berghei ANKA (varying doses 0.5-25 mg/kg BW, observed 30 days) is “survived beyond two weeks”.
